Experimental findings from paper PMC6934184, “Selective DNA-PKcs inhibition extends the therapeutic index of localized radiotherapy and chemotherapy” (The Journal of Clinical Investigation, 2019) are described below.

The test concerns the target T1, SRC (Homo sapiens, UniProt P12931).
T1 construct: purchased Thermo Fisher Scientific (Life Technologies) SelectScreen
Briefly: SelectScreen Z'LYTE. The test is classed as biochemical. Summed up:
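Percent values come from Thermo SelectScreen profiling of NU5455, combining activity and binding assays. CSF1R was run in Z'LYTE format at Km app ATP, and CAMK1 in Adapta format with ATP listed at 10.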

T1 sequence (P12931 whole entry): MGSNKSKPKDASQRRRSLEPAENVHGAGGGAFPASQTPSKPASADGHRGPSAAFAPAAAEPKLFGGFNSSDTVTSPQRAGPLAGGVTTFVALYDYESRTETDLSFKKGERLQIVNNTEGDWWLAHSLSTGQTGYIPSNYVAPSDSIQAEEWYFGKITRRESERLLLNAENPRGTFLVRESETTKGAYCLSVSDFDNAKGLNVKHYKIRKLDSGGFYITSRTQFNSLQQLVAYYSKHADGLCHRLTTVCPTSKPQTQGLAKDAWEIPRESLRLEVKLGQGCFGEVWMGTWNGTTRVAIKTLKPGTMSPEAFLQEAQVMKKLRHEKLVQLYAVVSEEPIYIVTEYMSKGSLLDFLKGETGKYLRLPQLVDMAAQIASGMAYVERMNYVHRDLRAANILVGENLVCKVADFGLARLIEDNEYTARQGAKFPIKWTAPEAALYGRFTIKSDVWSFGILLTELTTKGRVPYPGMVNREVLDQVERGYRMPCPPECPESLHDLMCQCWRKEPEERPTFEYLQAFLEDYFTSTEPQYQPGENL

With `CN(C(=O)CN1CCOCC1)c1ccc2sc3c(-c4cccc5c(=O)cc(N6CC7CCC(C6)O7)oc45)cccc3c2c1` [NU5455], at 1 µM the inhibition was 9.5%.

A word on the inhibition: it is the change of the read-out against control, counted positive when it falls.
